Measurements as given in ChEMBL document CHEMBL2417389, “Synthesis and optimization of novel (3S,5R)-5-(2,2-dimethyl-5-oxo-4-phenylpiperazin-1-yl)piperidine-3-carboxamides as orally active renin inhibitors” (Bioorg Med Chem, 2013).
Where a chain is given by its changes, count along the chain named. One block for each molecule: values may come before it. Active and inactive are the calls of the source. No cut-off for these calls is given here.

What was measured:
[1] = target: T1, Renin (Macaca fascicularis) (UniProt Q6DLS0); assay: Ratio of compound IC50 to Aliskiren hemifumarate IC50 for cynomolgus monkey plasma renin
T1 sequence (whole entry): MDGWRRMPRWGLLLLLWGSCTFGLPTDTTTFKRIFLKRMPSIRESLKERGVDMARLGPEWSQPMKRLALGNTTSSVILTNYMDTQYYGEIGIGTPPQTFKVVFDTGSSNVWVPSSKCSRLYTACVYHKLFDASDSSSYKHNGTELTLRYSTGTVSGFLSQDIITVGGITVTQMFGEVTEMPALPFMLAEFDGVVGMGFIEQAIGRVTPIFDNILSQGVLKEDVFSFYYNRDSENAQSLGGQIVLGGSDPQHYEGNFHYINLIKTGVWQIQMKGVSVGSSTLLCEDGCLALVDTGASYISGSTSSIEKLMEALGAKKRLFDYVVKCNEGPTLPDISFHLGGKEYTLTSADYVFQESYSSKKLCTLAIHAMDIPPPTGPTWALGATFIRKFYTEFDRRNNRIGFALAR

Renin [2] = target: T2, Renin (Macaca fascicularis, UniProt Q6DLS0); assay: Inhibition of cynomolgus monkey plasma renin assessed as angiotensin 1 level after 60 mins by competitive radioimmunoassay
T2 sequence (Q6DLS0 whole entry): T1 sequence (whole entry)

Renin [3] = target: T3, Renin (Homo sapiens, UniProt P00797); assay: Inhibition of trypsin-activated human recombinant renin using (Arg-Glu(EDANS)-Ile-His-Pro-Phe-His-Leu-Val-Ile-His-Thr-Lys(DABCYL)-Arg) as substrate incubated for 10 mins prior to substrate addition measured after 90 mins by fluorescence assay
T3 sequence (P00797 whole entry): T1 sequence (whole entry) with A68T, L214I, A235S

Rattus norvegicus [4] = assay: Antihypertensive activity in double transgenic rat assessed as reduction in mean arterial pressure at 30 mg/kg, po measured for 48 hrs post dose; assay type: functional, organism-based; design: dose 30 mg/kg; settings: Artery
hERG (KCNH2) = hERG (KCNH2) (Homo sapiens, UniProt Q12809); assay: Inhibition of human ERG channel at 30 uM by patch clamp technique
CYP2D6 = CYP2D6 (Homo sapiens, UniProt P10635); assay: Inhibition of CYP2D6 (unknown origin) at 10 uM; assay type: ADME
CYP3A4 = CYP3A4 (Homo sapiens, UniProt P08684); assay: Inhibition of CYP3A4 (unknown origin) at 10 uM; assay type: ADME
[5] = AUC (0 to 24 hrs) in cynomolgus monkey at 3 mg/kg, po; assay type: ADME, organism-based, Macaca fascicularis; design: time < 24 hr, dose 3 mg/kg, route oral; settings: plasma
[6] = AUC (0 to 24 hrs) in Sprague-Dawley rat at 10 mg/kg, po; assay type: ADME, organism-based; design: time < 24 hr, dose 10 mg/kg, route oral; settings: plasma
Cynomolgus monkey [7] = assay: Antihypertensive activity in cynomolgus monkey assessed as reduction in mean arterial pressure at 10 mg/kg, po measured for 24 hrs post dose; assay type: functional, organism-based; design: dose 10 mg/kg; settings: Macaca fascicularis, Artery
[8] = AUC (0 to 24 hrs) in cynomolgus monkey at 10 mg/kg, po; assay type: ADME, organism-based, Macaca fascicularis; design: time < 24 hr, dose 10 mg/kg, route oral; settings: plasma
[9] = Metabolic stability in rat liver microsomes assessed as compound remaining after 30 mins; assay type: ADME, Microsome; settings: read-out: Stability
[10] = Lipophilicity, log D of the compound at pH 7.4; assay type: physicochemical; settings: buffer
[11] = Volume of distribution at steady state in cynomolgus monkey at 10 mg/kg, po and 1 mg/kg, iv; assay type: ADME, organism-based, Macaca fascicularis; settings: in vivo, read-out: Vdss
[12] = Clearance in cynomolgus monkey at 10 mg/kg, and 1 mg/kg, iv; assay type: ADME, organism-based, Macaca fascicularis; settings: in vivo
[13] = Plasma protein binding in monkey by ultracentrifugation method; assay type: ADME, cell-free, Macaca mulatta; settings: rhesus monkey, read-out: PPB (converted)
Renin (Homo sapiens) = target: T4, Renin (Homo sapiens) (UniProt P00797); assay: Ratio of compound IC50 to Aliskiren hemifumarate IC50 for human plasma renin
T4 sequence (whole entry): T1 sequence (whole entry) with A68T, L214I, A235S

[14] = Oral bioavailability in cynomolgus monkey at 10 mg/kg; assay type: ADME, organism-based, Macaca fascicularis; settings: in vivo
Salmonella typhimurium [15] = assay: Genotoxicity in Salmonella typhimurium TA98 by Ames assay; assay type: toxicity, organism-based; settings: salmonella enterica subsp. enterica serovar typhimurium
[16] = Oral bioavailability in Sprague-Dawley rat at 30 mg/kg; assay type: ADME, organism-based; settings: in vivo
[17] = Clearance in Sprague-Dawley rat at 30 mg/kg, po and 1 mg/kg, iv; assay type: ADME, organism-based; settings: in vivo
[18] = Half life in cynomolgus monkey at 10 mg/kg, po and 1 mg/kg, iv; assay type: ADME, organism-based, Macaca fascicularis; settings: in vivo
Renin [19] = target: T3, Renin; assay: Inhibition of human plasma renin by competitive radioimmunoassay
Salmonella typhimurium [20] = assay: Genotoxicity in Salmonella typhimurium TA100 by Ames assay; assay type: toxicity, organism-based; settings: salmonella enterica subsp. enterica serovar typhimurium
Rattus norvegicus [21] = assay: Antihypertensive activity in double transgenic rat assessed as reduction in mean arterial pressure at 30 mg/kg, po after 24 hrs; assay type: functional, organism-based; design: dose 30 mg/kg; settings: Artery
[22] = Plasma protein binding in rat by ultracentrifugation method; assay type: ADME, cell-free; settings: read-out: PPB (converted)
[23] = AUC (0 to 24 hrs) in Sprague-Dawley rat at 30 mg/kg, po; assay type: ADME, organism-based; design: time < 24 hr, dose 30 mg/kg, route oral; settings: plasma
Cavia porcellus [24] = organism: Cavia porcellus; assay: Cardiotoxicity in guinea pig assessed as maximum dV/dt in right ventricular papillary muscle at 30 uM by glass microelectrode method relative to baseline; assay type: toxicity, Muscle tissue
[25] = Metabolic stability in human liver microsomes assessed as compound remaining after 30 mins; assay type: ADME, Microsome; settings: read-out: Stability
[26] = Half life in Sprague-Dawley rat at 30 mg/kg, po and 1 mg/kg, iv; assay type: ADME, organism-based; settings: in vivo
[27] = Plasma protein binding in human by ultracentrifugation method; assay type: ADME, cell-free; settings: read-out: PPB (converted)
[28] = Metabolic stability in monkey liver microsomes assessed as compound remaining after 30 mins; assay type: ADME, Macaca mulatta, Microsome; settings: rhesus monkey, read-out: Stability
[29] = Volume of distribution at steady state in Sprague-Dawley rat at 30 mg/kg, po and 1 mg/kg, iv; assay type: ADME, organism-based; settings: in vivo, read-out: Vdss
Cynomolgus monkey [30] = assay: Antihypertensive activity in po dosed cynomolgus monkey assessed as reduction in mean arterial pressure administered 3 days post furosemide-challenge measured after 24 hrs; assay type: functional, organism-based; settings: Macaca fascicularis; Artery
[31] = Cmax in Sprague-Dawley rat at 30 mg/kg, po and 1 mg/kg, iv; assay type: ADME, organism-based; settings: in vivo
Cavia porcellus [32] = organism: Cavia porcellus; assay: Cardiotoxicity in guinea pig assessed as action potential duration at 90% repolarization of right ventricular papillary muscle at 30 uM by glass microelectrode method relative to baseline; assay type: toxicity, Muscle tissue
[33] = Cmax in cynomolgus monkey at 10 mg/kg, po and 1 mg/kg, iv; assay type: ADME, organism-based, Macaca fascicularis; settings: in vivo

Sequence of CYP2D6 (P10635 whole entry): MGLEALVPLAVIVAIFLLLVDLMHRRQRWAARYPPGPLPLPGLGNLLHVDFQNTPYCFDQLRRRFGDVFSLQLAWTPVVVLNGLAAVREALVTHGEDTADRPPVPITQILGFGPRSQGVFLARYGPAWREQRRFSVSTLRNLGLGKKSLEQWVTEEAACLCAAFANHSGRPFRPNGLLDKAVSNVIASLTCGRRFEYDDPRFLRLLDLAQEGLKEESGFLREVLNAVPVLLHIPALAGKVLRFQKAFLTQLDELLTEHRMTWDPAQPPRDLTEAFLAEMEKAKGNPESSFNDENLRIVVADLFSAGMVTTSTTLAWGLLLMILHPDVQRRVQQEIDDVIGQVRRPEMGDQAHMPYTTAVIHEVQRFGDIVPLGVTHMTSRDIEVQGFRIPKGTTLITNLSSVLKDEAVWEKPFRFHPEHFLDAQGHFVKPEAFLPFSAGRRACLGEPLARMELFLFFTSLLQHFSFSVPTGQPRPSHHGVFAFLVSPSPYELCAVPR
Sequence of hERG (KCNH2) (Q12809 whole entry): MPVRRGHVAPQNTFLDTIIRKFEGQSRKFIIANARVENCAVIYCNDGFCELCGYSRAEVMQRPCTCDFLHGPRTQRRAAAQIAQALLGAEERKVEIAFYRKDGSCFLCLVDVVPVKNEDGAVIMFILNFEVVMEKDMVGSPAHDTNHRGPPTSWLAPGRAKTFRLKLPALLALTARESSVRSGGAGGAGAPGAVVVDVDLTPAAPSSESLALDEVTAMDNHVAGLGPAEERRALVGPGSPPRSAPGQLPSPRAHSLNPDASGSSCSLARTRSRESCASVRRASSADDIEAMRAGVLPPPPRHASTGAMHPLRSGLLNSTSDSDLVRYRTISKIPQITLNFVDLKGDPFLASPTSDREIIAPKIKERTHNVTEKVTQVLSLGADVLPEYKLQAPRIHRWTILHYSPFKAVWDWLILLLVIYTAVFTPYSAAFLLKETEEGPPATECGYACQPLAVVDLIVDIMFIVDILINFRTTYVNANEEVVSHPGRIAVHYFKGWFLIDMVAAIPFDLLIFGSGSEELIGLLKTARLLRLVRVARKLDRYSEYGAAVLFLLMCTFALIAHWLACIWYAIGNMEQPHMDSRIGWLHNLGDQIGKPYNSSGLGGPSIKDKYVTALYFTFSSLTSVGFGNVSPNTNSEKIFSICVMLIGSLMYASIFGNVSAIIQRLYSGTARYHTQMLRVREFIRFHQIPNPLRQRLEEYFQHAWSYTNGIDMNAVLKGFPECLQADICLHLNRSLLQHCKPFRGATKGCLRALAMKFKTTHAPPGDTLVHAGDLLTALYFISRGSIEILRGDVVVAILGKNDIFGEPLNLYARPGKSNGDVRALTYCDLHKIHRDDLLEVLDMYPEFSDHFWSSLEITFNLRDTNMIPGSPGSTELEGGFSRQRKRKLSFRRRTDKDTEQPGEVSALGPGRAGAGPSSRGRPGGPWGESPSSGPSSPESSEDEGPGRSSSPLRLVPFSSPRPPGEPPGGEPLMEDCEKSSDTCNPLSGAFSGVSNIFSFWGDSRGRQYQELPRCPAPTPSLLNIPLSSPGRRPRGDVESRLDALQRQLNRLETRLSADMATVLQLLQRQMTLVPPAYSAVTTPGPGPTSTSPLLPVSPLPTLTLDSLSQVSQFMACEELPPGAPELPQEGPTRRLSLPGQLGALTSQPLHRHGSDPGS
Sequence of CYP3A4 (P08684 whole entry): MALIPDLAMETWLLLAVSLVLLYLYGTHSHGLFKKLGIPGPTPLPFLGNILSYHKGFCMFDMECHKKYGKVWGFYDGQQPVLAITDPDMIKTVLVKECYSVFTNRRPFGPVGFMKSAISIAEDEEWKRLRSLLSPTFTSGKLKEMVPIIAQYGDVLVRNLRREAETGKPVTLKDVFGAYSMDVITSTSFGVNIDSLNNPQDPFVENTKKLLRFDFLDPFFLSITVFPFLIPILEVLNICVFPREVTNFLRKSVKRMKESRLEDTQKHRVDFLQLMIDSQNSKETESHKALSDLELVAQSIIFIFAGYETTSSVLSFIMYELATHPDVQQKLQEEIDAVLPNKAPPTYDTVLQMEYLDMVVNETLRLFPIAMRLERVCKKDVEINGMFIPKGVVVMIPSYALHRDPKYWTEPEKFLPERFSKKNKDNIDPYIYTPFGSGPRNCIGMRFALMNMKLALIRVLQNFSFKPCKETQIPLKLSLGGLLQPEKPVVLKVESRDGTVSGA

Ratio IC50 [1]: 2.1
IC50 (Renin [2]): 16 nM
IC50 (Renin [3]): 1.3 nM
inhibition at 10 µM (CYP2D6): 11%
inhibition at 10 µM (CYP3A4): 44%
Compound: Cc1ccc(F)cc1N1CC(C)(C)N([C@H]2CNC[C@@H](C(=O)N[C@H](CC(C)C)c3ccc(F)cn3)C2)CC1=O
AUC (Rattus norvegicus [4]): -606 mmHg.hr
inhibition at 30 µM (hERG (KCNH2)): 40%

Ratio IC50 [1]: 1.8
AUC(0-t) at 24 h [5]: 730 ng·h/mL
AUC(0-t) at 24 h [6]: 1500 ng·h/mL
Compound: CC[C@@H](NC(=O)[C@@H]1CNC[C@H](N2CC(=O)N(c3ccccc3Cl)CC2(C)C)C1)c1ccccc1.O=C(O)/C=C/C(=O)O

Ratio IC50 [1]: 0.5
AUC(0-t) at 24 h [5]: 60 ng·h/mL
Compound: CCOC[C@@H](CC(C)C)NC(=O)[C@@H]1CNC[C@H](N2CC(=O)N(c3ccccc3Cl)CC2(C)C)C1.O=C(O)/C=C/C(=O)O

AUC(0-t) at 24 h [8]: 2580 ng·h/mL
Ratio IC50 [1]: 2.1
IC50 (Renin [2]): 9.7 nM
IC50 (Renin [3]): 1 nM
inhibition at 10 µM (CYP2D6): 8.3%
inhibition at 10 µM (CYP3A4): 22%
Compound: CC(C)C[C@@H](NC(=O)[C@@H]1CNC[C@H](N2CC(=O)N(c3ccccc3Cl)CC2(C)C)C1)c1ccc(F)cn1.O=C(O)/C=C/C(=O)O
AUC (Cynomolgus monkey [7]): -194 mmHg.hr
AUC (Rattus norvegicus [4]): -535 mmHg.hr
inhibition at 30 µM (hERG (KCNH2)): 27%

remaining at 0.5 h [9]: 89%
AUC(0-t) at 24 h [8]: 3190 ng·h/mL
logD [10]: 2
Vd [11]: 5.4 L/kg
clearance [12]: 9.5 mL/min/kg
fraction unbound [13]: 0.45
Ratio IC50 (Renin (Homo sapiens)): 1.2
bioavailability [14]: 25%
Ratio IC50 [1]: 0.9
bioavailability [16]: 20%
clearance [17]: 80 mL/min/kg
half-life [18]: 7.9 h
IC50 (Renin [19]): 3.6 nM
IC50 (Renin [2]): 7 nM
IC50 (Renin [3]): 1.6 nM
inhibition at 10 µM (CYP2D6): 1%
fraction unbound [22]: 0.37
AUC(0-t) at 24 h [23]: 1100 ng·h/mL
remaining at 0.5 h [25]: 100%
half-life [26]: 5.4 h
fraction unbound [27]: 0.62
remaining at 0.5 h [28]: 84%
Vd [29]: 11 L/kg
inhibition at 10 µM (CYP3A4): 30%
Cmax [31]: 204 ng/mL
Cmax [33]: 604 ng/mL
Compound: Cc1ccccc1N1CC(C)(C)N([C@H]2CNC[C@@H](C(=O)N[C@H](CC(C)C)c3ccc(F)cn3)C2)CC1=O.O=C(O)/C=C/C(=O)O
AUC (Cynomolgus monkey [7]): -267 mmHg.hr
AUC (Rattus norvegicus [4]): -581 mmHg.hr
Activity (Salmonella typhimurium [15]): Non-toxic
inhibition at 30 µM (hERG (KCNH2)): 5.2%
Activity (Salmonella typhimurium [20]): Non-toxic
Activity (Rattus norvegicus [21]): Active
Activity (Cavia porcellus [24]): -11.6%
Activity (Cynomolgus monkey [30]): Dose-dependent effect
Activity (Cavia porcellus [32]): -1%

Ratio IC50 [1]: 3.6
IC50 (Renin [2]): 17 nM
IC50 (Renin [3]): 1.4 nM
Compound: CC(C)C[C@@H](NC(=O)[C@@H]1CNC[C@H](N2CC(=O)N(c3ccccc3Cl)CC2(C)C)C1)c1ccccn1

Continued, molecule first:

Compound: CC[C@@H](NC(=O)[C@@H]1CNC[C@H](N2CC(=O)N(c3ccccc3Cl)CC2(C)C)C1)c1ccccc1F
Ratio IC50 [1]: 2.3
IC50 (Renin [2]): 11 nM
IC50 (Renin [3]): 3.3 nM

Compound: CC[C@@H](NC(=O)[C@@H]1CNC[C@H](N2CC(=O)N(c3ccccc3Cl)CC2(C)C)C1)c1cccc(Cl)c1
Ratio IC50 [1]: 5
IC50 (Renin [2]): 25 nM
IC50 (Renin [3]): 2.3 nM

Compound: CC(C)C[C@@H](NC(=O)[C@@H]1CNC[C@H](N2CC(=O)N(c3ccccc3Cl)CC2(C)C)C1)c1cccnc1
Ratio IC50 [1]: 0.9

Compound: CC[C@@H](NC(=O)[C@@H]1CNC[C@H](N2CC(=O)N(c3ccccc3Cl)CC2(C)C)C1)c1cccc(F)c1
Ratio IC50 [1]: 2.8
IC50 (Renin [2]): 14 nM
IC50 (Renin [3]): 1.8 nM

Compound: CC(C)C[C@@H](NC(=O)[C@@H]1CNC[C@H](N2CC(=O)N(c3ccccc3Cl)CC2(C)C)C1)c1cncc(F)c1
Ratio IC50 [1]: 0.8
IC50 (Renin [2]): 6.9 nM
IC50 (Renin [3]): 1.7 nM

Compound: CC[C@@H](NC(=O)[C@@H]1CNC[C@H](N2CC(=O)N(c3ccccc3Cl)CC2(C)C)C1)c1ccc(F)cc1
Ratio IC50 [1]: 3.7
IC50 (Renin [2]): 19 nM
IC50 (Renin [3]): 2.4 nM

Compound: CC(C)C[C@@H](NC(=O)[C@@H]1CNC[C@H](N2CC(=O)N(c3ccccc3Cl)CC2(C)C)C1)C(O)C(C)C (stereo partly drawn)
Ratio IC50 [1]: 0.8

Compound: CC(C)C[C@@H](NC(=O)[C@@H]1CNC[C@H](N2CC(=O)N(c3ccccc3Cl)CC2(C)C)C1)c1ccno1
Ratio IC50 [1]: 0.6
IC50 (Renin [2]): 3.3 nM
IC50 (Renin [3]): 1.1 nM

Compound: CC[C@@H](NC(=O)[C@@H]1CNC[C@H](N2CC(=O)N(c3ccccc3Cl)CC2(C)C)C1)c1ccc(Cl)cc1
Ratio IC50 [1]: 11
IC50 (Renin [2]): 55 nM
IC50 (Renin [3]): 5.2 nM

Compound: CCC[C@@H](NC(=O)[C@@H]1CNC[C@H](N2CC(=O)N(c3ccccc3Cl)CC2(C)C)C1)c1ccccc1
Ratio IC50 [1]: 2

Compound: CC(C)C[C@@H](NC(=O)[C@@H]1CNC[C@H](N2CC(=O)N(c3ccccc3Cl)CC2(C)C)C1)c1ccccc1
Ratio IC50 [1]: 1

Compound: CC(C)C[C@@H](NC(=O)[C@@H]1CNC[C@H](N2CC(=O)N(c3ccccc3Cl)CC2(C)C)C1)c1ncco1
Ratio IC50 [1]: 1.4
IC50 (Renin [2]): 8.3 nM
IC50 (Renin [3]): 1.9 nM

Compound: CC(C)CC(CC(C)C)NC(=O)[C@@H]1CNC[C@H](N2CC(=O)N(c3ccccc3Cl)CC2(C)C)C1
Ratio IC50 [1]: 2.8
